In ChEMBL document CHEMBL5154747, “Discovery of new carbonic anhydrase IX inhibitors as anticancer agents by toning the hydrophobic and hydrophilic rims of the active site to encounter the dual-tail approach” (Eur J Med Chem, 2022):

What was measured:
Assay type in all cases: functional
CCRF-CEM = assay: Anticancer activity against human CCRF-CEM cells assessed as cell growth inhibition incubated for 48 hrs by SRB assay
K562 = assay: Anticancer activity against human K562 cells assessed as cell growth inhibition incubated for 48 hrs by SRB assay
MOLT-4 = assay: Anticancer activity against human MOLT-4 cells assessed as cell growth inhibition incubated for 48 hrs by SRB assay
SR = assay: Anticancer activity against human SR cells assessed as cell growth inhibition incubated for 48 hrs by SRB assay
A549 = assay: Anticancer activity against human A549 cells assessed as cell growth inhibition incubated for 48 hrs by SRB assay
EKVX = assay: Anticancer activity against human EKVX cells assessed as cell growth inhibition incubated for 48 hrs by SRB assay
HOP-62 = assay: Anticancer activity against human HOP-62 cells assessed as cell growth inhibition incubated for 48 hrs by SRB assay
HOP-92 = assay: Anticancer activity against human HOP-92 cells assessed as cell growth inhibition incubated for 48 hrs by SRB assay
NCI-H226 = assay: Anticancer activity against human NCI-H226 cells assessed as cell growth inhibition incubated for 48 hrs by SRB assay
NCI-H23 = assay: Anticancer activity against human NCI-H23 cells assessed as cell growth inhibition incubated for 48 hrs by SRB assay
NCI-H322M = assay: Anticancer activity against human NCI-H322M cells assessed as cell growth inhibition incubated for 48 hrs by SRB assay
NCI-H460 = assay: Anticancer activity against human NCI-H460 cells assessed as cell growth inhibition incubated for 48 hrs by SRB assay
NCI-H522 = assay: Anticancer activity against human NCI-H522 cells assessed as cell growth inhibition incubated for 48 hrs by SRB assay
HCT-116 = assay: Anticancer activity against human HCT-116 cells assessed as cell growth inhibition incubated for 48 hrs by SRB assay
HCT-15 = assay: Anticancer activity against human HCT-15 cells assessed as cell growth inhibition incubated for 48 hrs by SRB assay
HT-29 = assay: Anticancer activity against human HT-29 cells assessed as cell growth inhibition incubated for 48 hrs by SRB assay
KM12 = assay: Anticancer activity against human KM12 cells assessed as cell growth inhibition incubated for 48 hrs by SRB assay
SW-620 = assay: Anticancer activity against human SW-620 cells assessed as cell growth inhibition incubated for 48 hrs by SRB assay
SF-268 = assay: Anticancer activity against human SF-268 cells assessed as cell growth inhibition incubated for 48 hrs by SRB assay
SF-539 = assay: Anticancer activity against human SF-539 cells assessed as cell growth inhibition incubated for 48 hrs by SRB assay
SNB-19 = assay: Anticancer activity against human SNB-19 cells assessed as cell growth inhibition incubated for 48 hrs by SRB assay
SNB-75 = assay: Anticancer activity against human SNB-75 cells assessed as cell growth inhibition incubated for 48 hrs by SRB assay
U-251 = assay: Anticancer activity against human U-251 cells assessed as cell growth inhibition incubated for 48 hrs by SRB assay
Malme-3M = assay: Anticancer activity against human Malme-3M cells assessed as cell growth inhibition incubated for 48 hrs by SRB assay
SK-MEL-2 = assay: Anticancer activity against human SK-MEL-2 cells assessed as cell growth inhibition incubated for 48 hrs by SRB assay
SK-MEL-5 = assay: Anticancer activity against human SK-MEL-5 cells assessed as cell growth inhibition incubated for 48 hrs by SRB assay
UACC-257 = assay: Anticancer activity against human UACC-257 cells assessed as cell growth inhibition incubated for 48 hrs by SRB assay
UACC-62 = assay: Anticancer activity against human UACC-62 cells assessed as cell growth inhibition incubated for 48 hrs by SRB assay
OVCAR-4 = assay: Anticancer activity against human OVCAR-4 cells assessed as cell growth inhibition incubated for 48 hrs by SRB assay
OVCAR-5 = assay: Anticancer activity against human OVCAR-5 cells assessed as cell growth inhibition incubated for 48 hrs by SRB assay
OVCAR-8 = assay: Anticancer activity against human OVCAR-8 cells assessed as cell growth inhibition incubated for 48 hrs by SRB assay
NCI/ADR-RES = assay: Anticancer activity against human NCI/ADR-RES cells assessed as cell growth inhibition incubated for 48 hrs by SRB assay
A498 = assay: Anticancer activity against human A498 cells assessed as cell growth inhibition incubated for 48 hrs by SRB assay
RXF 393 = assay: Anticancer activity against human RXF 393 cells assessed as cell growth inhibition incubated for 48 hrs by SRB assay
SN12C = assay: Anticancer activity against human SN12C cells assessed as cell growth inhibition incubated for 48 hrs by SRB assay
UO-31 = assay: Anticancer activity against human UO-31 cells assessed as cell growth inhibition incubated for 48 hrs by SRB assay
MCF7 = assay: Anticancer activity against human MCF7 cells assessed as cell growth inhibition incubated for 48 hrs by SRB assay
Hs-578T = assay: Anticancer activity against human Hs-578T cells assessed as cell growth inhibition incubated for 48 hrs by SRB assay
T47D = assay: Anticancer activity against human T47D cells assessed as cell growth inhibition incubated for 48 hrs by SRB assay
[1] = read-out: LC50 (the source's name)

NS(=O)(=O)c1ccc(Nc2nc(N/N=C/c3ccc(C(F)(F)F)cc3)nc(Nc3ccccc3)n2)cc1
GI50 (CCRF-CEM): 3 µM | CC50 (CCRF-CEM; [1]): > 100 µM | GI50 (K562): 3.51 µM | CC50 (K562; [1]): > 100 µM | GI50 (MOLT-4): 3.06 µM | CC50 (MOLT-4; [1]): > 100 µM | GI50 (SR): 3.07 µM | CC50 (SR; [1]): > 100 µM | GI50 (A549): 3.11 µM | LC50 (A549): 87.2 µM | GI50 (EKVX): 2.62 µM | CC50 (EKVX; [1]): 40.3 µM | GI50 (HOP-62): 2.15 µM | CC50 (HOP-62; [1]): 69.7 µM | GI50 (HOP-92): 2.38 µM | CC50 (HOP-92; [1]): 39.8 µM | GI50 (NCI-H226): 2.45 µM | CC50 (NCI-H226; [1]): > 100 µM | GI50 (NCI-H23): 1.95 µM | CC50 (NCI-H23; [1]): 9.25 µM | GI50 (NCI-H322M): 3.31 µM | CC50 (NCI-H322M; [1]): 36.1 µM | GI50 (NCI-H460): 3.02 µM | CC50 (NCI-H460; [1]): > 100 µM | GI50 (NCI-H522): 2.66 µM | CC50 (NCI-H522; [1]): 87.1 µM | GI50 (HCT-116): 3.1 µM | LC50 (concentration killing 50% of cells) (HCT-116): 64 µM | GI50 (HCT-15): 2.32 µM | CC50 (HCT-15; [1]): 52 µM | GI50 (HT-29): 2.44 µM | CC50 (HT-29; [1]): 50.1 µM | GI50 (KM12): 2.38 µM | CC50 (KM12; [1]): 24.8 µM | GI50 (SW-620): 3.3 µM | CC50 (SW-620; [1]): > 100 µM | GI50 (SF-268): 3.51 µM | LC50 (concentration killing 50% of cells) (SF-268): > 100 µM | GI50 (SF-539): 1.86 µM | CC50 (SF-539; [1]): 9.61 µM | GI50 (SNB-19): 3.46 µM | CC50 (SNB-19; [1]): 40.6 µM | GI50 (SNB-75): 2.05 µM | LC50 (concentration killing 50% of cells) (SNB-75): 37.5 µM | GI50 (U-251): 2.69 µM | CC50 (U-251; [1]): 71.4 µM | GI50 (Malme-3M): 1.87 µM | CC50 (Malme-3M; [1]): 8.15 µM | GI50 (SK-MEL-2): 2.17 µM | CC50 (SK-MEL-2; [1]): 42.7 µM | GI50 (SK-MEL-5): 1.74 µM | LC50 (SK-MEL-5): 5.82 µM | GI50 (UACC-257): 2.42 µM | LC50 (UACC-257): 37.2 µM | GI50 (UACC-62): 2.35 µM | LC50 (UACC-62): 16.2 µM | GI50 (OVCAR-4): 3.69 µM | LC50 (concentration killing 50% of cells) (OVCAR-4): > 100 µM | GI50 (OVCAR-5): 2.96 µM | CC50 (OVCAR-5; [1]): 39.9 µM | GI50 (OVCAR-8): 2.83 µM | LC50 (OVCAR-8): 35.5 µM | GI50 (NCI/ADR-RES): 12.3 µM | CC50 (NCI/ADR-RES; [1]): > 100 µM | GI50 (A498): 2.61 µM | CC50 (A498; [1]): 63.8 µM | GI50 (RXF 393): 1.82 µM | CC50 (RXF 393; [1]): 35.5 µM | GI50 (SN12C): 3 µM | LC50 (SN12C): 86.6 µM | GI50 (UO-31): 1.88 µM | CC50 (UO-31; [1]): 15.7 µM | GI50 (MCF7): 2.18 µM | LC50 (MCF7): 64.8 µM | GI50 (Hs-578T): 3.07 µM | LC50 (concentration killing 50% of cells) (Hs-578T): > 100 µM | GI50 (T47D): 2.48 µM | LC50 (T47D): > 100 µM
